Measurements: publication PMC11249646, “Small-Molecule Disruptors of the Interaction between Calcium- and Integrin-Binding Protein 1 and Integrin αIIbβ3 as Novel Antiplatelet Agents” (ACS Pharmacology & Translational Science, 2024)
Like-named read-outs stand apart in the source and are kept apart here.

Tests used:
[1] = biological target: T1, CIB1 and αIIb interaction (CIB1-GST : F-αIIb peptide) (Homo sapiens, UniProt Q99828); assay: FP assay, 1536-well qHTS format (primary and confirmatory screen); assay type: binding
T1 construct: made in house; host or cells: BL-21 plus RIL cells (E. coli)
T1 sequence (Q99828 1-191): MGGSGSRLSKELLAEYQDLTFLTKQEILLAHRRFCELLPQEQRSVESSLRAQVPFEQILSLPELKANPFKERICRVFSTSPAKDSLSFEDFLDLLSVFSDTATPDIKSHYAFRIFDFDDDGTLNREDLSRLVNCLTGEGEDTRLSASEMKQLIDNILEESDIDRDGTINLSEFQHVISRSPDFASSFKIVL

[2] = biological target: T2, GST-CIB1 : F-scrambled peptide (Homo sapiens, UniProt Q99828); assay: FP scrambled-peptide counter screen, 1536-well format; assay type: binding; details: scrambled-peptide counterscreen
T2 construct: made in house; host or cells: BL-21 plus RIL cells (E. coli)
T2 sequence (Q99828 1-191): T1 sequence (Q99828 1-191)

washed human platelets = assay: Human platelet aggregation assay (thrombin-induced); assay type: cell-based
In short: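 Washed platelets (2 × 10^8/mL) from citrated blood of healthy volunteers, pretreated 30 min at 37 °C with compound or DMSO vehicle, then activated with 0.03 U/mL thrombin. Aggregation traces recorded by aggregometry; P-selectin (CD62P) exposure measured by flow cytometry.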

CIB1 and αIIb peptide = biological target: T3, CIB1 and αIIb peptide (Homo sapiens, UniProt Q99828); assay: Intrinsic tryptophan fluorescence (ITF) assay
T3 sequence (Q99828 1-191): T1 sequence (Q99828 1-191)

[3] = In vitro ADME: solubility; assay type: physicochemical; details: read-out: Solubility
[4] = biological target: T4, GST-CIB1:F-αIIb interaction (Homo sapiens, UniProt Q99828); assay: Gel-based (in-gel) binding assay; details: 1 μM GST-CIB1, 400 nM F-αIIb; 60 μM, 1:2, 4-points
T4 construct: made in house; host or cells: BL-21 plus RIL cells (E. coli)
T4 sequence (Q99828 1-191): T1 sequence (Q99828 1-191)

CIB1-(His)6 = biological target: T5, CIB1-(His)6 (Homo sapiens, UniProt Q99828); assay: Microscale thermophoresis (MST) protein and small-molecule binding; details: MST; fluorescently labeled CIB1-(His)6 50 nM; read-out: equilibrium dissociation constant (Kd)
T5 construct: made in house
T5 sequence (Q99828 1-191): T1 sequence (Q99828 1-191)
Procedure: Determining a direct measurement of a molecule’s binding interaction with its target is a vital parameter for characterizing a chemical probe. We employed microscale thermophoresis (MST) for this purpose, leveraging its sensitivity and capacity to deliver quantitative data on the binding interaction.[35] […] We began by testing increasing amounts of the compound(s) and incubating them with the fluorescently labeled CIB1-(His)6, followed by the detection of the MST traces on the NT automated instrument (for more details see Materials and Methods Section). […] We were able to rule out compound interference with the histidine tag on CIB1 and/or the fluorophore used for the MST assay by testing the compounds with a fluorescently labeled hexa-histidine peptide (Figure S8B).
The binding affinity of the compounds to the CIB1-(His)6 protein was evaluated using microscale thermophoresis (MST). The recombinant protein was labeled with a fluorophore using Monolith His-tag labeling RED-tris-NTA second Generation kit (Nanotemper Technologies, Munich, Germany) following the manufacturer’s protocol. Compounds were titrated in a 2-fold dilution series (16 points, final concentration range of 6.1 nM to 200 μM) and incubated with the same volume of 50 nM (final concentration; 25 nM RED-tris-NTA) labeled recombinant protein for 30 min at RT (20 μL final assay volume). […] The dissociation constant (Kd) values were calculated by fitting the thermophoresis signal at 20 s of the thermograph using the MO Affinity Analysis software (Nanotemper Technologies, Munich, Germany) and confirmed using GraphPad Prism.

[5] = biological target: T6, CIB1 and αIIb interaction (GST-CIB1 : F-αIIb peptide) (Homo sapiens, UniProt Q99828); assay: FP assay, 384-well format (screen); assay type: binding; design: 384-well SCREEN Efficacy (%): concentration or dose not given beside the values
T6 construct: made in house; host or cells: BL-21 plus RIL cells (E. coli)
T6 sequence (Q99828 1-191): T1 sequence (Q99828 1-191)

[6] = In vitro ADME: RLM stability; details: rat liver microsomes; read-out: Rat Liver Microsome Stability (t1/2)
[7] = biological target: T2, GST-CIB1 : F-scrambled peptide; assay: FP scrambled-peptide counter screen, 384-well format; assay type: binding; details: F-scrambled peptide

In the case of `COc1ccccc1C(=O)c1no[n+]([O-])c1C(=O)c1ccccc1OC.O=C(O)C(F)(F)F` [NCGC00351170-01], the “CONFIRMATORY SCREEN Confirm?” value ([1]; confirmatory screen, YES/NO call) is reported as “YES”, the “CONFIRMATORY SCREEN Curve Class” value ([1]; confirmatory screen, qHTS curve class, negative sign = inhibitory curve) is reported as -1.2 and the “CONFIRMATORY SCREEN Efficacy (%)” value ([1]; confirmatory screen, negative = inhibition) is reported as -45%. The IC50 ([1]; confirmatory screen, read-out: CONFIRMATORY SCREEN IC50) was 5.6 µM, the “Efficacy (%)” value ([1]; qHTS FP screen hits, Table S2, negative = inhibition) was -37% and the “Curve Class” value ([1]; qHTS FP screen hits, Table S2, one class per curve where COUNT > 1, negative sign = inhibitory curve) was -1.2. The IC50 ([1]; qHTS FP screen hits, Table S2, read-out: IC50) was 5 µM, the “COUNTERSCREEN Efficacy (%)” value [2] was -14% and the “COUNTERSCREEN Confirm?” value ([2]; YES/NO call) was “YES”. The “COUNTERSCREEN Curve Class” value ([2]; qHTS curve class) was 4, the “Platelet Aggregation Result” value (washed human platelets; 10 μM compound) was “Active” and the inhibition at 10 µM (washed human platelets; Homo sapiens, Platelet, single concentration of 10 μM (n = 3), thrombin) was 94%. For the same molecule, the “lowest concentration required to achieve >95% inhibition of platelet aggregation” value (washed human platelets; dose response, thrombin) was 2 µM, the “Thrombin Assay 10 µM (%)” value (washed human platelets; platelet aggregation inhibition at 10 µM) was 94% and the IC50 (CIB1 and αIIb peptide) was 15.6 µM. The solubility [3] was > 0.052 mg/mL, the “Active in Gel Assay?” value [4] was “YES” and the Kd (CIB1-(His)6) was 2.9 µM. The IC50 ([5]; 384-well FP assay, Table 1, read-out: FP assay IC50) was 4.19 µM, the “384-well SCREEN Efficacy (%)” value ([5]; F-αIIb peptide) was 57% and the “384-well SCREEN Confirm?” value ([5]; F-αIIb peptide, YES/NO) was “YES”. For the same molecule, the IC50 ([5]; F-αIIb peptide, read-out: 384-well SCREEN IC50) was 7.9 µM, the IC50 ([5]; quoted in text for comparison with MST EC50, read-out: potency in the 384-well FP assays) was ~4 µM and the “Confirm and Selective?” value ([5]; selective toward αIIb: negative curve class and/or IC50 ratio of >3-fold and/or >2-fold efficacy vs scrambled peptide) was “Inconclusive”. For the same molecule, the half-life [6] was 1.52 min, the “384-well COUNTERSCREEN Efficacy (%)” value [7] was 34% and the “384-well COUNTERSCREEN Confirm?” value ([7]; *: Curve in opposite direction) was “Inconclusive”. It also gave an IC50 ([7]; read-out: 384-well COUNTERSCREEN IC50) of 8.9 µM.
